# Laboratory results as given in ChEMBL document CHEMBL1909046, “DrugMatrix in vitro pharmacology data”.
# pIC50, pKi: −log10 of the molar value.
# Assays:
# [1] = molecular target: T1, Alpha-2C adrenergic receptor (Homo sapiens, UniProt P18825); test: DRUGMATRIX: Adrenergic Alpha-2C radioligand binding (ligand: [3H] MK-912); type: cell membranes, Sf9, Membrane; conditions: for IC50: sf9
# T1 sequence (P18825 whole entry): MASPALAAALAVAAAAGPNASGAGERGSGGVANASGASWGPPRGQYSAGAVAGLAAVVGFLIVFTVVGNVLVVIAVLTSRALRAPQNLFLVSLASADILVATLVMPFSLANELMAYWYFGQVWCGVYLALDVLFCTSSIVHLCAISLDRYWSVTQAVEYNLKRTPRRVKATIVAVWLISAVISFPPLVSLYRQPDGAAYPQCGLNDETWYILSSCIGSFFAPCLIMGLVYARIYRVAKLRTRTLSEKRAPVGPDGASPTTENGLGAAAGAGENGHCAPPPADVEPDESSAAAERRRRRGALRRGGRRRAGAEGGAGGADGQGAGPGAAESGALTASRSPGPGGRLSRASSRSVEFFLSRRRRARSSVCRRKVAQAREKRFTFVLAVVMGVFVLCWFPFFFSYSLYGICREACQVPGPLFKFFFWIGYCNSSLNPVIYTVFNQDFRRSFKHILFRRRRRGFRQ
# [2] = molecular target: Beta-1 adrenergic receptor (Homo sapiens, UniProt P08588); test: DRUGMATRIX: Adrenergic beta1 radioligand binding (ligand: [125I] Cyanopindolol); type: cell membranes, CHO-K1, Membrane; conditions: Not Active = under 50% inhibition at 10 µM; for IC50: cho-k1
# [3] = molecular target: Beta-3 adrenergic receptor (Homo sapiens, UniProt P13945); test: DRUGMATRIX: Adrenergic beta3 radioligand binding (ligand: [125I] Cyanopindolol); type: cell membranes, HEK293, Membrane; conditions: hek293; Not Active = under 50% inhibition at 10 µM
# [4] = DRUGMATRIX: Calcium Channel Type L, Dihydropyridine radioligand binding (ligand: [3H] Nitrendipine); type: cell membranes, Rattus norvegicus, Wistar, Cerebral cortex, Membrane; conditions: Not Active = under 50% inhibition at 10 µM
# [5] = molecular target: 5-hydroxytryptamine receptor 6 (Homo sapiens, UniProt P50406); type: cell membranes, HeLa, Membrane; conditions: for IC50: hela; as to all read-outs here: in other assays of this panel Not Active means under 50% inhibition at 10 µM
# Carbonic anhydrase 2 = Carbonic anhydrase 2 (Homo sapiens, UniProt P00918); test: DRUGMATRIX: Carbonic Anhydrase II enzyme inhibition (substrate: 4-Nitrophenyl acetate (4-NPA)); type: tissue-based, Erythrocyte; conditions: erythrocyte; Not Active = under 50% inhibition at 10 µM
# [6] = molecular target: T2, C-C chemokine receptor type 4 (Homo sapiens, UniProt P51679); type: cell membranes, Membrane; conditions: chem-1; also: in other assays of this panel Not Active means under 50% inhibition at 10 µM
# T2 sequence (P51679 whole entry): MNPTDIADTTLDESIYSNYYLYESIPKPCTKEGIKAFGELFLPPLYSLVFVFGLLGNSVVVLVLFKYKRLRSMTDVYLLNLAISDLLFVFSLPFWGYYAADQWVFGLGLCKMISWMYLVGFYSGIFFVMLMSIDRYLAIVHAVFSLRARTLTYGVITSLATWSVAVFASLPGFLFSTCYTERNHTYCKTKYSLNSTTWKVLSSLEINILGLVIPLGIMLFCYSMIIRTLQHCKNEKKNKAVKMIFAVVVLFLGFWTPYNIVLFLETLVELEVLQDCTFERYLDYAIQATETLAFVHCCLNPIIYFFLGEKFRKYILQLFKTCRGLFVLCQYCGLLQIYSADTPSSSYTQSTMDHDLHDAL
# [7] = molecular target: C-C chemokine receptor type 5 (Homo sapiens, UniProt P51681); type: cell membranes, Membrane; conditions: hek293; also: in other assays of this panel Not Active means under 50% inhibition at 10 µM
# Glycine receptor = Glycine receptor (Rattus norvegicus, UniProt P22771+P24524+P07727+P20781); type: cell membranes, Wistar, Spinal cord, Membrane; also: in other assays of this panel Not Active means under 50% inhibition at 10 µM
# [8] = DRUGMATRIX: Imidazoline I2, Central radioligand binding (ligand: [3H] Idazoxan); type: cell membranes, Rattus norvegicus, Wistar, Cerebral cortex, Membrane; conditions: Not Active = under 50% inhibition at 10 µM
# Adenosine receptor A1 = molecular target: T3, Adenosine receptor A1 (Homo sapiens, UniProt P30542); type: cell membranes, CHO, Membrane; conditions: cho
# T3 sequence (P30542 whole entry): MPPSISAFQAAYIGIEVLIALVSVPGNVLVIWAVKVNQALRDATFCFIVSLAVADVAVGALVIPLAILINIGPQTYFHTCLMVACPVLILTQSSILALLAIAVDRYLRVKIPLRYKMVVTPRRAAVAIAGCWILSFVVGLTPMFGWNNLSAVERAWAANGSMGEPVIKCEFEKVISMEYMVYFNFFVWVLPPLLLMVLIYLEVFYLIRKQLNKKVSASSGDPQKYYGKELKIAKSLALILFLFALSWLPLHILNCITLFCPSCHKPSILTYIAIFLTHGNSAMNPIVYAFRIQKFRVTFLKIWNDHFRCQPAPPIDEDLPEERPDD
# Glucocorticoid receptor = molecular target: T4, Glucocorticoid receptor (Homo sapiens, UniProt P04150); conditions: hela s3; also: in other assays of this panel Not Active means under 50% inhibition at 10 µM
# T4 sequence (P04150 whole entry): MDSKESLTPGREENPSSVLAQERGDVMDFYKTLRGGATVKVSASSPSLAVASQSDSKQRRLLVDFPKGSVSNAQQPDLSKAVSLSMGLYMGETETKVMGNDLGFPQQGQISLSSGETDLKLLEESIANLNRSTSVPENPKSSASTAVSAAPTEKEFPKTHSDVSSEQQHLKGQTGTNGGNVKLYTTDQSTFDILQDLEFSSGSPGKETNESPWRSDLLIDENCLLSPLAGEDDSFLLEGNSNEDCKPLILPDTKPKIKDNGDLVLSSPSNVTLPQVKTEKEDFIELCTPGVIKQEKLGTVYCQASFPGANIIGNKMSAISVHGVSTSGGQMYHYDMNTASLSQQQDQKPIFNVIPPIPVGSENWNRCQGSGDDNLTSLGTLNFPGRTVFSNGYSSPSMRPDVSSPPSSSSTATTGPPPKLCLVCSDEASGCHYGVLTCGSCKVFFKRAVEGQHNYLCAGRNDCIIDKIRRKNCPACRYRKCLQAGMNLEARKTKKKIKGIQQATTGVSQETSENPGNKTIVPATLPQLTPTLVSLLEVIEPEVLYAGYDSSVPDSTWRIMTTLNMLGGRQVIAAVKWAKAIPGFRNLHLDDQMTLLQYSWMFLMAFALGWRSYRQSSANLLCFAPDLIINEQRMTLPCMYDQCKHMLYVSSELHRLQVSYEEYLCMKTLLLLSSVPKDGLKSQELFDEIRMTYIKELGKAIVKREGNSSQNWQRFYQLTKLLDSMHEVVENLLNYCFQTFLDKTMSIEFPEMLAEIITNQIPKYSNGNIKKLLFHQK
# Beta-1 adrenergic receptor, sequence (P08588 whole entry): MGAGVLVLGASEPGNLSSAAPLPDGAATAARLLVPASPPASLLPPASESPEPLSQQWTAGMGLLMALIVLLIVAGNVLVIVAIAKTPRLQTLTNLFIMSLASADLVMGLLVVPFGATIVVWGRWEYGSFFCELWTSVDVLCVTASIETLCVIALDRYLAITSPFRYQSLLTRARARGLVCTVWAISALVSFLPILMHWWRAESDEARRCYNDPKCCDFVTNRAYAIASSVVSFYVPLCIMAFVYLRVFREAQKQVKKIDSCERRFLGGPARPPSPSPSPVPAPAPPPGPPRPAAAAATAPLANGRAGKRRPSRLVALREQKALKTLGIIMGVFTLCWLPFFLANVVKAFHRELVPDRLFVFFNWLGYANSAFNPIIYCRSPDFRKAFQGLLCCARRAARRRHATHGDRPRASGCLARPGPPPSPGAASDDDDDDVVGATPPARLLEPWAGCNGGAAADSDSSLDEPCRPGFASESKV
# Beta-3 adrenergic receptor, sequence (P13945 whole entry): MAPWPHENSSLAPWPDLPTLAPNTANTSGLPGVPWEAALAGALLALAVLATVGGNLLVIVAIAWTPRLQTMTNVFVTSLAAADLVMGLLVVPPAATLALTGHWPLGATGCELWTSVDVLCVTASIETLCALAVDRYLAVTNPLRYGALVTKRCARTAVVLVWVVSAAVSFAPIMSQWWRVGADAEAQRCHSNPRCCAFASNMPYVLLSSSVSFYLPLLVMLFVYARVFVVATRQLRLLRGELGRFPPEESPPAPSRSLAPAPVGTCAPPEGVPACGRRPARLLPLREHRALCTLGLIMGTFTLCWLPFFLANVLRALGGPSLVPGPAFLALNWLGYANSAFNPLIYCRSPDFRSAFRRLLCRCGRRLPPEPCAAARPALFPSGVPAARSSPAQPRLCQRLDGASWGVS
# 5-hydroxytryptamine receptor 6, sequence (P50406 whole entry): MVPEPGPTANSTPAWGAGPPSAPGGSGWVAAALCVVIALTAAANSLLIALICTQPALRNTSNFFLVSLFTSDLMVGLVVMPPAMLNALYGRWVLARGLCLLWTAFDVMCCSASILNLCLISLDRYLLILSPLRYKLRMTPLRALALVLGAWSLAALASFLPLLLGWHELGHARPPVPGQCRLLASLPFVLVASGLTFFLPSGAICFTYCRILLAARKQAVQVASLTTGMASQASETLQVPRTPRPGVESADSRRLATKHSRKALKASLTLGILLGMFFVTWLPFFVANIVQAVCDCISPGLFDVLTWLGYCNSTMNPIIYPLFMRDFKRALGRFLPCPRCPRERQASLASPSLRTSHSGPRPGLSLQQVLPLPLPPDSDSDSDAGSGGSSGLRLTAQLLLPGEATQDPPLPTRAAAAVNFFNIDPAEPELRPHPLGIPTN
# C-C chemokine receptor type 5, sequence (P51681 whole entry): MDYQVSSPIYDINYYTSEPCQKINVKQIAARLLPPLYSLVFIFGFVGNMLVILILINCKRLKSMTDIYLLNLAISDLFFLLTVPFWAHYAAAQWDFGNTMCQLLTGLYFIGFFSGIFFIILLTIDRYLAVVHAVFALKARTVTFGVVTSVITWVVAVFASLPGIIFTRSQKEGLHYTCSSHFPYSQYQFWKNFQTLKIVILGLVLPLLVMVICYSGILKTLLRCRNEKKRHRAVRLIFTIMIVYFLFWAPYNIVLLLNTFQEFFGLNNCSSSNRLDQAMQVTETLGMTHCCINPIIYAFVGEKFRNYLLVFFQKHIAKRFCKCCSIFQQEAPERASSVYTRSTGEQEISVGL
smiles,measurement,setting,value
CC1=Nc2ccc(Cl)cc2S(=O)(=O)N1 [DIAZOXIDE],IC50,[1],Not Active
same,IC50,[2],Not Active
same,IC50,[3],Not Active
same,IC50,[4],Not Active
same,Ki,[4],Not Active
same,IC50,[5],Not Active
same,IC50,Carbonic anhydrase 2,Not Active
same,IC50,[6],Not Active
same,IC50,[7],Not Active
same,IC50,Glycine receptor,Not Active
same,IC50,[8],Not Active
same,Ki,[8],Not Active
same,IC50,Adenosine receptor A1,Not Active
same,IC50,Glucocorticoid receptor,Not Active
COc1ccc([C@@H]2Sc3ccccc3N(CCN(C)C)C(=O)[C@@H]2OC(C)=O)cc1 [DILTIAZEM],IC50,[1],Not Active
same,IC50,[2],Not Active
same,IC50,[3],Not Active
same,IC50,[4],Not Active
same,Ki,[4],Not Active
same,IC50,[5],Not Active
same,IC50,Carbonic anhydrase 2,Not Active
same,IC50,[6],Not Active
same,IC50,[7],Not Active
same,IC50,Glycine receptor,Not Active
same,IC50,[8],Not Active
same,Ki,[8],Not Active
same,IC50,Adenosine receptor A1,Not Active
same,IC50,Glucocorticoid receptor,Not Active
CCc1ccc(C(=O)C(C)CN2CCCCC2)cc1 (stereo not drawn) [EPERISONE],IC50,[1],Not Active
same,IC50,[2],Not Active
same,IC50,[3],Not Active
same,IC50,[4],Not Active
same,Ki,[4],Not Active
same,IC50,[5],Not Active
same,IC50,Carbonic anhydrase 2,Not Active
same,IC50,[6],Not Active
same,IC50,[7],Not Active
same,IC50,Glycine receptor,Not Active
same,IC50,[8],Not Active
same,Ki,[8],Not Active
same,IC50,Adenosine receptor A1,Not Active
same,IC50,Glucocorticoid receptor,Not Active
C=C1CC[C@H](O)C/C1=C/C=C1\CCC[C@]2(C)[C@@H]([C@H](C)/C=C/[C@H](C)C(C)C)CC[C@@H]12 [ERGOCALCIFEROL],IC50,[1],Not Active
same,IC50,[2],Not Active
same,IC50,[3],Not Active
same,IC50,[4],Not Active
same,Ki,[4],Not Active
same,IC50,[5],Not Active
same,IC50,Carbonic anhydrase 2,Not Active
same,IC50,[6],Not Active
same,IC50,[7],Not Active
same,IC50,Glycine receptor,Not Active
same,IC50,[8],Not Active
same,Ki,[8],Not Active
same,IC50,Adenosine receptor A1,Not Active
same,IC50,Glucocorticoid receptor,Not Active
CN1C[C@H](C(=O)N[C@]2(C)O[C@@]3(O)[C@@H]4CCCN4C(=O)[C@H](Cc4ccccc4)N3C2=O)C=C2c3cccc4[nH]cc(c34)C[C@H]21 [ERGOTAMINE],pIC50,[1]; read-out: IC50,7.92
same,pKi,[1]; read-out: Ki,8.74
same,pIC50,[2]; read-out: IC50,5.38
same,pKi,[2]; read-out: Ki,5.62
same,IC50,[3],Not Active
same,IC50,[4],Not Active
same,Ki,[4],Not Active
same,pIC50,[5]; read-out: IC50,8.69
same,pKi,[5]; read-out: Ki,9.02
same,IC50,Carbonic anhydrase 2,Not Active
same,IC50,[6],Not Active
same,IC50,[7],Not Active
same,IC50,Glycine receptor,Not Active
same,pIC50,[8]; read-out: IC50,8.44
same,pKi,[8]; read-out: Ki,8.61
same,IC50,Adenosine receptor A1,Not Active
same,IC50,Glucocorticoid receptor,Not Active
Cc1c(-c2ccccc2)oc2c(C(=O)OCCN3CCCCC3)cccc2c1=O [FLAVOXATE],IC50,[1],Not Active
same,IC50,[2],Not Active
same,IC50,[3],Not Active
same,IC50,[4],Not Active
same,Ki,[4],Not Active
same,IC50,[5],Not Active
same,IC50,Carbonic anhydrase 2,Not Active
same,IC50,[6],Not Active
same,IC50,[7],Not Active
same,IC50,Glycine receptor,Not Active
same,IC50,[8],Not Active
same,Ki,[8],Not Active
same,IC50,Adenosine receptor A1,Not Active
same,IC50,Glucocorticoid receptor,Not Active
Nc1nc(=O)[nH]cc1F [FLUCYTOSINE],IC50,[1],Not Active
same,IC50,[2],Not Active
same,IC50,[3],Not Active
same,IC50,[4],Not Active
same,Ki,[4],Not Active
same,IC50,[5],Not Active
same,IC50,Carbonic anhydrase 2,Not Active
same,IC50,[6],Not Active
same,IC50,[7],Not Active
same,IC50,Glycine receptor,Not Active
same,IC50,[8],Not Active
same,Ki,[8],Not Active
same,IC50,Adenosine receptor A1,Not Active
same,IC50,Glucocorticoid receptor,Not Active
O=C1OC2(c3ccc(O)cc3Oc3cc(O)ccc32)c2ccccc21 [FLUORESCEIN],IC50,[1],Not Active
same,IC50,[2],Not Active
same,IC50,[3],Not Active
same,IC50,[4],Not Active
same,Ki,[4],Not Active
same,IC50,[5],Not Active
same,IC50,Carbonic anhydrase 2,Not Active
same,IC50,[6],Not Active
same,IC50,[7],Not Active
same,IC50,Glycine receptor,Not Active
same,IC50,[8],Not Active
same,Ki,[8],Not Active
same,IC50,Adenosine receptor A1,Not Active
same,IC50,Glucocorticoid receptor,Not Active
O=c1[nH]cc(F)c(=O)[nH]1 [FLUOROURACIL],IC50,[1],Not Active
same,IC50,[2],Not Active
same,IC50,[3],Not Active
same,IC50,[4],Not Active
same,Ki,[4],Not Active
same,IC50,[5],Not Active
same,IC50,Carbonic anhydrase 2,Not Active
same,IC50,[6],Not Active
same,IC50,[7],Not Active
same,IC50,Glycine receptor,Not Active
same,IC50,[8],Not Active
same,Ki,[8],Not Active
same,IC50,Adenosine receptor A1,Not Active
same,IC50,Glucocorticoid receptor,Not Active
CC(C)n1c(/C=C/C(O)CC(O)CC(=O)O)c(-c2ccc(F)cc2)c2ccccc21 (stereo not drawn) [FLUVASTATIN],IC50,[1],Not Active
same,IC50,[2],Not Active
same,IC50,[3],Not Active
same,IC50,[4],Not Active
same,Ki,[4],Not Active
same,IC50,[5],Not Active
same,IC50,Carbonic anhydrase 2,Not Active
same,IC50,[6],Not Active
same,IC50,[7],Not Active
same,IC50,Glycine receptor,Not Active
same,IC50,[8],Not Active
same,Ki,[8],Not Active
same,IC50,Adenosine receptor A1,Not Active
same,IC50,Glucocorticoid receptor,Not Active
